Experimental data from patent US20140336365A1, “CDR REGIONS OF MONOCLONAL ANTIBODY THAT ANTAGONIZE SPHINOGOSINE 1-PHOSPHATE AND RELATED METHODS” (priority 2011, published 2014).

Tests used:
S1P receptors = conditions: with the exception of S1P2; by stable internalization; cited from earlier work
tumor transplant model = conditions: cited from earlier work
[1] = tested on: MDA-MB-231 breast cancer cells; experiment: S1P-induced cytoskeletal rearrangement / cell rounding (phalloidin staining); format: cell-based, human
Protocol: MDA-MB-231 breast cancer cells are cultured on collagen-coated coverslips in the presence of 10% FBS using standard techniques. Because S1P is present at high concentrations in serum, BCCs are “serum-starved” in Dulbecco's modified Eagle medium (DMEM) for 12 hours prior to experimental manipulation. S1P is solubilized with bovine serum albumin (BSA) carrier and administered at a final concentration of 1 nM to 1 μM. Coverslips are collected at representative time points such as 10 minutes, 1 hr., 2 hrs., 4 hrs., and 6 hrs., fixed with 4% paraformaldehyde, and stained with rhodamine-conjugated phalloidin to label cytoskeletal actin.
The cell rounding experiment can be performed using an antagonist of S1P that binds to S1P3. For example, the antiserum described in Example 1 can be employed. Serum-starved MDA-MB-231 cells are incubated with preimmune serum or S1P3-reactive antiserum for 15 minutes prior to a 30-minute exposure to 10 nM S1P, then evaluated for response both in % cells responding and average cell area.
MDA-MB-231 cells are grown under standard culture conditions and serum starved for 24 hours prior to experimental manipulation. S1P3 antiserum or pre-immune serum obtained from the same rabbit is added to the media at a final concentration of 1:10,000 as indicated. 15 minutes later, S1P is added to the media to a final concentration of 10 nM. 30 minutes after S1P administration, cells are fixed with 4% paraformaldehyde, stained with rhodamine-conjugated phalloidin, and visualized with fluorescence microscopy. Rounded cells are counted by an experimenter blinded to the identity of the sample. Cell area is determined by quantification with ImageJ software.

MCF-7 = experiment: Cell proliferation by BrdU incorporation, MCF-7; format: cell-based, human
Protocol: (§1) The experiment can first be performed in the absence of the antagonist. The effect of S1P on cell proliferation is determined by measuring bromodeoxyuridine (BrdU) incorporation. In this assay, cells are treated with S1P or vehicle control (0.1% fatty acid-free BSA) for 30 minutes before being exposed to a 30-minute BrdU pulse. Cells are then fixed with ethanol, labeled with a biotinylated α-BrdU antibody, incubated with streptavidin-peroxidase, developed with DAB, and counter-stained with hematoxylin. Nuclei of cells in S-phase during the 30-minute pulse are labeled brown, while non-proliferative cells show the blue hematoxylin stain.

MDA-MB-231 = experiment: Cell proliferation by BrdU incorporation, MDA-MB-231; format: cell-based, human
Protocol: as §1

MDA-MB-231 cells [2] = experiment: Cell motility, modified Boyden's chamber assay; format: cell-based, human; conditions: 1 μM S1P
Protocol: Cell motility is determined using a modified Boyden's chamber assay. MDA-MB-231 cells are introduced into the upper wells of collagen-coated chambers in serum-free DMEM and incubated for 30 minutes before the addition of either 1 μM S1P in BSA or BSA alone. At the indicated times, wells are isolated and fixed with 4% paraformaldehyde before non-migrated cells in the upper well are removed with a cotton swab. Membranes are then stained with DAPI to visualize individual migrated cells on the bottom of the membranes. Results shown are the averages of three independent experiments.

MDA-MB-231 cells [3] = experiment: Tamoxifen toxicity, cell viability by phase contrast microscopy; format: cell-based, human
Protocol: The experiment can be performed first without a S1P antagonist. MDA-MB-231 cells are cultured under standard conditions in Dulbecco's Minimal Essential Media supplemented with 10% fetal bovine serum and glutamate. Cells are grown in the absence of serum for 24 hours prior to experimental manipulation. Tamoxifen (Tam) and S1P are added to the media at the indicated concentrations for the indicated times at the appropriate concentrations (e.g., 3 μM Tam, 10 μM Tarn, and 20 μM Tam) for appropriate times (e.g., 6 hrs. and 24 hrs.). Cell viability is observed by direct illumination with an inverted phase contrast microscope.
The tamoxifen toxicity experiment can be performed using an antagonist of S1P that binds to S1P3. For example, the antiserum described in Example 1 can be employed. MDA-MB-231 cells are cultured under standard conditions in Dulbecco's Minimal Essential Media supplemented with 10% fetal bovine serum and glutamate. Serum concentration is reduced to 1% for 24 hours prior to experimental manipulation. Tamoxifen and S1P are added to the media at the appropriate concentrations (e.g., 0 μM Tam, 10 μM Tam, and 20 μM Tam) for appropriate times (e.g., 6 hrs. and 24 hrs.). Cell viability is observed by direct illumination with an inverted phase contrast microscope.

MCF-7 cells = experiment: Cell death by annexin V assay (FACS); format: cell-based, human; conditions: for % Annexin positive cells: overnight
Protocol: Quantification of cell death can be performed with an annexin V assay. […] of 500 nM S1P, then collected by trypsinization, and labeled with Alexafluor 488-conjugated annexin V (Invitrogen Corp, Carlsbad, Calif.) per manufacturer's protocol. Cells can be counted on a FACSAria cell sorting system and analyzed with FACSDiva software (BD Biosciences, San Jose, Calif.). […] This effect is attenuated by co-administration of 500 nM S1P.

S1P3 = biological target: T1, S1P3 (Homo sapiens, UniProt Q99500); experiment: Immunocytochemistry of hybridoma supernatants on HEK293 cells expressing tagged S1P3; format: binding; conditions: HEK293 cells expressing S1P3 fused to V5 or EGFP
T1 construct: expressed in transfected cells; host or cells: HEK293 (pcDNA3.1)
Source text: A synthetic peptide is synthesized with the amino acid sequence: KKTFSLSPTVWFLREG. This sequence corresponds to the extra-cellular loop between transmembrane domains 2 and 3 of cell surface receptor S1P3. This peptide is conjugated to keyhole limpet hemocyanin (KLH) and used for the immunization of 5 balb/c mice. Production of specific antibodies is confirmed by immunocytochemistry. HEK293 cells are transiently transfected with a mammalian expression vector (pcDNA3.1) encoding the full-length S1P3 protein fused to either a V5 epitope or enhanced green fluorescent protein (EGFP) on its C-terminal end. After 16-36 hours, cells are fixed with 4% paraformaldehyde, blocked with BSA, and exposed to antiserum from immunized mice (dilutions of 1:10, 1:25, 1:50, 1:100, 1:250, 1:500, 1:1,000, 1:2,000, 1:5,000), or supernatants from hybridoma cultures. […] Binding of antibodies from serum or supernatants is detected with a Cy3-conjugated secondary antibody. Specificity of binding is evaluated by coincidence of this signal with green fluorescence, either from the expressed EGFP fusion protein or from secondary antibody bound to the expressed V5 epitope.
Mice are immunized with KLH-conjugated peptide at regular intervals and evaluated by enzyme-linked immunosorbent assay (ELISA) and immunocytochemistry until sera are identified that contain specific antibodies (2-3 months). […]

T1 sequence (Q99500 whole entry, the tested form may be a part): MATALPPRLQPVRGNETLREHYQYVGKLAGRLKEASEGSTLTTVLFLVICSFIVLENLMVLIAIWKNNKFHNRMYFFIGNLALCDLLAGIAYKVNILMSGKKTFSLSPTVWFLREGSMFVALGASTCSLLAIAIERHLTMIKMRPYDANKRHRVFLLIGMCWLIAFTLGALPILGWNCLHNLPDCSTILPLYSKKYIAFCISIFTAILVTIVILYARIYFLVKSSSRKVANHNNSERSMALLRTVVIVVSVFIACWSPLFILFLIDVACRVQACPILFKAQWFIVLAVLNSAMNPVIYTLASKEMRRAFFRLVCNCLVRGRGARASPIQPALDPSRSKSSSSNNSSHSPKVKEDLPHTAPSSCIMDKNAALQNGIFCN

Question: For CCCCCCCCc1ccc(CCC(N)(CO)CO)cc1 [FTY720], which “Inhibition of S1P receptors” value (S1P receptors) is on record?
Answer: effectively inhibit four of the five known receptors

Question: And the “Effect on angiogenesis and tumor growth” value (tumor transplant model)?
Answer: inhibit angiogenesis and subsequent growth

Question: For CCCCCCCCCCCCC/C=C/[C@@H](O)[C@@H](N)COP(=O)(O)O [S1P, Sphingosine 1-phosphate], which Cell shape change ([1]; 1 nM S1P) is on record?
Answer: minor cell shape changes

Question: What about the Cell shape change ([1]; 10 nM S1P) of the same molecule?
Answer: dramatic cell rounding

Question: And the “% Rounded Cells Following S1P Treatment” value ([1]; 10 nM S1P, 30 min, no serum)?
Answer: 64%

Question: What about the “Average Cell Area Following S1P Treatment” value ([1]; 10 nM S1P, 30 min, no serum) of the same molecule?
Answer: 960.4 μm^2

Question: What about the “Cells with marked cytoskeletal rearrangement” value ([1]; 1 μM S1P, within 10 minutes) of the same molecule?
Answer: > 90%

Question: What about the “Effect on mitosis (BrdU incorporation), in words” value (MCF-7) of the same molecule?
Answer: dose-dependent increase in mitosis

Question: What about the “Mitosis by BrdU incorporation” value (MCF-7; 10 nM S1P) of the same molecule?
Answer: 49%

Question: And the “Mitosis by BrdU incorporation” value (MCF-7; 100 nM S1P)?
Answer: 45%

Question: And the “Mitosis by BrdU incorporation” value (MCF-7; 1 μM S1P)?
Answer: 61%

Question: And the “Effect on mitosis (BrdU incorporation), in words” value (MDA-MB-231)?
Answer: dose-dependent increase in mitosis

Question: What about the “Mitosis by BrdU incorporation” value (MDA-MB-231; 10 nM S1P) of the same molecule?
Answer: 71%

Question: What about the “Mitosis by BrdU incorporation” value (MDA-MB-231; 100 nM S1P) of the same molecule?
Answer: 84%

Question: And the “Mitosis by BrdU incorporation” value (MDA-MB-231; 1 μM S1P)?
Answer: 88%

Question: What about the “Effect on cell motility compared to vehicle control, in words” value (MDA-MB-231 cells [2]) of the same molecule?
Answer: rapid and significant increase in cell motility

Question: And the “Cell migration (migrated cells)” value (MDA-MB-231 cells [2]; 1 hours)?
Answer: 672.5 Cells/mm^2

Question: What about the “Cell migration (migrated cells)” value (MDA-MB-231 cells [2]; 2 hours) of the same molecule?
Answer: 900 Cells/mm^2

Question: What about the “Cell migration (migrated cells)” value (MDA-MB-231 cells [2]; 4 hours) of the same molecule?
Answer: 1385 Cells/mm^2

Question: And the “Increase in migrated cells compared to vehicle control” value (MDA-MB-231 cells [2]; two hour time point)?
Answer: nearly two-fold increase

Question: And the “Increase in migrated cells compared to vehicle control” value (MDA-MB-231 cells [2]; within one hour)?
Answer: 74%

Question: And the “Cell viability under tamoxifen with S1P” value (MDA-MB-231 cells [3]; 1 μM S1P with 10 or 20 μM tamoxifen, 6 hours, serum-free)?
Answer: many viable cells remain

Question: And the “Survival under tamoxifen with S1P” value (MDA-MB-231 cells [3]; S1P with 3 or 10 μM tamoxifen, 24 hour, serum-free)?
Answer: markedly improves survival

Question: And the “% Annexin positive cells” value (MCF-7 cells; 500 nM S1P with 10 μM Tamoxifen)?
Answer: 15.9%

Question: And the “% Annexin positive cells” value (MCF-7 cells; 500 nM S1P with 20 μM Tamoxifen)?
Answer: 20.2%

Question: And the “% Annexin positive cells” value (MCF-7 cells; 500 nM S1P, 0 Tamoxifen)?
Answer: 6.2%

Question: And the “Effect on tamoxifen-induced annexin V binding, in words” value (MCF-7 cells; co-administration of 500 nM S1P)?
Answer: attenuated

Question: With CC/C(=C(\c1ccccc1)c1ccc(OCCN(C)C)cc1)c1ccccc1 [Tamoxifen] as the molecule, how does the Cell viability (MDA-MB-231 cells [3]; 3 μM tamoxifen, 24 hour, serum-free) read?
Answer: most control cells are lost

Question: And the Cell viability (MDA-MB-231 cells [3]; 10 μM Tam, 6 hours, 1% FBS)?
Answer: appear normal

Question: And the Cell viability (MDA-MB-231 cells [3]; 10 μM tamoxifen, 6 hours, serum-free)?
Answer: only a few viable cells remain

Question: What about the Cell viability (MDA-MB-231 cells [3]; 10 μM tamoxifen, 24 hour, serum-free) of the same molecule?
Answer: cell death is complete

Question: What about the Cell viability (MDA-MB-231 cells [3]; 20 μM Tam, 6 hours, 1% FBS) of the same molecule?
Answer: begin to show evidence of cell death

Question: What about the Cell viability (MDA-MB-231 cells [3]; 20 μM tamoxifen, 6 hours, serum-free) of the same molecule?
Answer: all cells are dead/dying

Question: And the “% Annexin positive cells” value (MCF-7 cells; 10 μM Tamoxifen, BSA (no S1P))?
Answer: 20.1%

Question: What about the “% Annexin positive cells” value (MCF-7 cells; 20 μM Tamoxifen, BSA (no S1P)) of the same molecule?
Answer: 28.9%

Question: And the “Effect on annexin V binding (apoptotic cell death), in words” value (MCF-7 cells; overnight treatment with tamoxifen)?
Answer: increase in annexin V binding

B1: EDDbeta7H9: Hybridoma EDDbeta7H9 (ATCC PTA-9973) produces the monoclonal antibody Mab7H9, which binds S1P3 (antibody, V domains shown)
VL: DIVMTQSHKFMSTSVGDRVSITCKASQDVSTGVVWYQQKEGQSPKLLIYSASYRYTGVPNRFTGSGSGTDFTFTISGVQAEDLAVYYCQQHYSSPTFGGGTKLEIKRADAAPTVSIFPPSS
VH: QVTLKESGPGILQPSQTLSLTCSFSGFSLSTSNMGVGWIRQPSGKGLEWLLHILWNDNKHYNPALKSRLTISKDTYKNQVFLKIANVDTADTATYYCARILYRSNYYVMDYWGQGTSVTVSSAKTTPPSVYPL
Question: For B1, which “Presence of specific antibodies in hybridoma supernatant by immunocytochemistry” value (S1P3) is on record?
Answer: positive
